Usually IC50 stands for the concentration at which inhibition is half-maximal.

T1 sequence (P26663 2420-3010): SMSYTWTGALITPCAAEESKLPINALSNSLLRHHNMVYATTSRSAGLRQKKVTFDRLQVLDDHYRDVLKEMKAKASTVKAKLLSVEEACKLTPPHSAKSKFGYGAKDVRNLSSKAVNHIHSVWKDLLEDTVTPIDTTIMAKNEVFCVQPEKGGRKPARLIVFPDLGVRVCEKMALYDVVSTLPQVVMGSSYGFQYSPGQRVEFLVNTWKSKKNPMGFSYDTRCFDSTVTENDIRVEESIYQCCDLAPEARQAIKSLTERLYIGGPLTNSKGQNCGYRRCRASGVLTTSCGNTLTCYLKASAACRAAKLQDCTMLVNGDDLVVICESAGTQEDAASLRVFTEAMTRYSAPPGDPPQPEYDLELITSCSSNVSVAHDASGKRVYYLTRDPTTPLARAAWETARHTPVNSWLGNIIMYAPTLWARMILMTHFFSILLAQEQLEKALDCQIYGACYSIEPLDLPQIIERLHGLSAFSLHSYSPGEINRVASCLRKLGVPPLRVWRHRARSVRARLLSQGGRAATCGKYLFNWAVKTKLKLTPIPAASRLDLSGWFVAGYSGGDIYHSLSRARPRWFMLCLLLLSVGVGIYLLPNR

This assay has as its target T1, Recombinant HCV polymerase (Hepatitis C virus genotype 1b, UniProt P26663).
T1 construct: Recombinant HCV polymerase was tested for its ability to perform primer/template-directed transcription
As to the kind of experiment: biochemical. To be noted: inhibition of polymerase-directed transcription; 30 min at 30° C; 30 nM enzyme; cpm data in triplicate. How it is done: The compounds described herein were tested for activity with HCV polymerase. Recombinant HCV polymerase was tested for its ability to perform primer/template-directed transcription in assays that contained 30 mM tris-HCl pH 7.2, 10 mM MgCl2, 20 mM NaCl, 1 mM Dithiothreitol (DTT), 0.05% Tween-20, 1% glycerol, 5 pmoles biotin-dG12 (primer), 0.5 pmoles poly(rC)300 (template), 1 μM GTP, 0.1–0.3 uCi α-^32P-GTP, and 2.5 pmoles (0.15 μg) HCV polymerase protein in a final volume of 75 μL. Reactions were initiated by addition of enzyme and incubated 30 minutes at 30° C. Reactions were stopped by addition of 33 mM EDTA, and polynucleotide products were collected by filtration through Diethylaminoethyl (DE) Filtermat papers (Wallac). Unincorporated triphosphate was removed by washing the filters with 5% dibasic sodium phosphate. The filters were counted in a Packard Tri-Lux Microbeta scintillation counter (Packard Bioscience, Meriden, Conn.). Compounds to be tested were added at various concentrations, e.g., 1 μm to 50 μm, from stocks in 10% DMSO-water (final DMSO is 1% in reaction).
IC50 values were estimated from the primary cpm data (collected in triplicate) using the formula: cpm (I)=cpm (no inhibitor)(1−([I]/([I]+IC50))). […] A percent inhibition value is expressed for a compound where it was impractical to calculate an IC50 value with available data.
Consider `CCc1cc(CCC2(C3CCCC3)CC(O)=C(Cc3nc4nc(C)cc(C)n4n3)C(=O)O2)c(OC)cn1` (single isomer, unassigned) [A(38), 6-Cyclopentyl-3-[(5,7-dimethyl[1,2,4]triazolo[1,5-a]pyrimidin-2-yl)methyl]-6-[2-(2-ethyl-5-methoxypyridin-4-yl)ethyl]-4-hydroxy-5,6-dihydro-2H-pyran-2-one], for which the IC50 worked out at 3 nM. Turning to `Cc1cc(C)n2nc(CC3=C(O)CC(CCc4cc(CC(F)(F)F)nc(CC(F)(F)F)c4)(C4CCCC4)OC3=O)nc2n1` (stereo not shown) [A(9), 6-{2-[2,6-Bis(2,2,2-trifluoroethyl)pyridin-4-yl]ethyl}-6-cyclopentyl-3-[(5,7-dimethyl[1,2,4]triazolo[1,5-a]pyrimidin-2-yl)methyl]-4-hydroxy-5,6-dihydro-2H-pyran-2-one], the IC50 is 5 nM.

As for `CCc1cc(CCC2(C3CCCC3)CC(O)=C(Cc3nc4nc(C)cc(C)n4n3)C(=O)O2)cc(C)n1` (stereo not shown) [A(35), 6-Cyclopentyl-3-[(5,7-dimethyl[1,2,4]triazolo[1,5-a]pyrimidin-2-yl)methyl]-6-[2-(2-ethyl-6-methylpyridin-4-yl)ethyl]-4-hydroxy-5,6-dihydro-2H-pyran-2-one], the IC50 was 9 nM. Then `CCc1ccnc(CCC2(C3CCCC3)CC(O)=C(Cc3nc4ncc(C)cn4n3)C(=O)O2)c1` (stereo not shown) [A(16), 6-Cyclopentyl-6-[2-(4-ethylpyridin-2-yl)ethyl]-4-hydroxy-3-[(6-methyl[1,2,4]triazolo[1,5-a]pyrimidin-2-yl)methyl]-5,6-dihydro-2H-pyran-2-one], with 55 nM.

On to `CCOc1cnc(CC)cc1CCC1(C2CCCC2)CC(O)=C(Cc2nc3nc(C)cc(C)n3n2)C(=O)O1` (stereo not shown) [A(27), 6-Cyclopentyl-3-[(5,7-dimethyl[1,2,4]triazolo[1,5-a]pyrimidin-2-yl)methyl]-6-[2-(5-ethoxy-2-ethylpyridin-4-yl)ethyl]-4-hydroxy-5,6-dihydro-2H-pyran-2-one], for which the IC50 stood at 3 nM.

As to `CCc1cc(CCC2(C3CCCC3)CC(O)=C(Cc3nc4nc(C)cc(C)n4n3)C(=O)O2)ccc1CCCOC` (stereo not shown) [A(20), 6-Cyclopentyl-3-[(5,7-dimethyl[1,2,4]triazolo[1,5-a]pyrimidin-2-yl)methyl]=6-{2-[3-ethyl-4-(3-methoxypropyl)phenyl]ethyl} -4-hydroxy-5,6-dihydro-2H-pyran-2-one], the IC50 was found to be 9 nM.

For the compound `CCCOc1cc(O)c(CC(F)(F)F)cc1CCC1(C2CCCC2)CC(O)=C(Cc2nc3nc(C)cc(C)n3n2)C(=O)O1` (stereo not shown) [A(77), 6-Cyclopentyl-3-[(5,7-dimethyl[1,2,4]triazolo[1,5-a]pyrimidin-2-yl)methyl]-4-hydroxy-6-{2-[4-hydroxy-2-propoxy-5-(2,2,2-trifluoroethyl)phenyl]ethyl}-5,6-dihydro-2H-pyran-2-one], the IC50 is 5 nM.

With `Cc1cc(C)n2nc(CC3=C(O)CC(CCc4ccc(O)c(CC(F)(F)F)c4)(C4CCCC4)OC3=O)nc2n1` (single isomer, unassigned) [A(74), 6-Cyclopentyl-3-[(5,7-dimethyl[1,2,4]triazolo[1,5-a]pyrimidin-2-yl)methyl]-4-hydroxy-6-{2-[4-hydroxy-3-(2,2,2-trifluoroethyl)phenyl]ethyl}-5,6-dihydro-2H-pyran-2-one], the half-inhibitory concentration (IC50) is 3 nM.

As for `Cc1c(CC2=C(O)CC(CCc3ccc(C(C)(C)C#N)c(F)c3)(C3CCCC3)OC2=O)cnn1C` (stereo not shown) [A(94), 2-[4-(2-{2-Cyclopentyl-5-[(1,5-dimethyl-1H-pyrazol-4-yl)methyl]-4-hydroxy-6-oxo-3,6dihydro-2H-pyran-2-yl}ethyl)-2-fluorophenyl]-2-methylpropanenitrile], the IC50 is 27 nM. Then `CCc1cncc(CCC2(C3CCCC3)CC(O)=C(Cc3nc4nc(C)cc(C)n4n3)C(=O)O2)c1` (stereo not shown) [A(14), 6-Cyclopentyl-3-[(5,7-dimethyl[1,2,4]triazolo[1,5-a]pyrimidin-2-yl)methyl]-6-[2-(5-ethylpyridin-3-yl)ethyl]-4-hydroxy-5,6dihydro-2H-pyran-2-one], with 8 nM; and `CCn1cc(CCC2(C3CCCC3)CC(O)=C(Cc3nc4nc(C)cc(C)n4n3)C(=O)O2)cn1` (stereo not shown) [A(61), 6-Cyclopentyl-3[(5,7-dimethyl[1,2,4]triazolo[1,5-a]pyrimidin-2-yl)methyl]-6-[2-(1-ethyl-1H-pyrazol-4-yl)ethyl]-4-hydroxy-5,6-dihydro-2H-pyran-2-one], with 140 nM; and `Cc1cc(C)n2nc(CC3=C(O)CC(CCc4cnn(C(C)C)c4)(C4CCCC4)OC3=O)nc2n1` (stereo not shown) [A(62), 6-Cyclopentyl-3-[(5,7-dimethyl[1,2,4]triazolo[1,5-a]pyrimidin-2-yl)methyl]-4-hydroxy-6-[2-(1-isopropyl-1H-pyrazol-4-yl)ethyl]-5,6-dihydro-2H-pyran-2-one], with 60 nM.

With `CC(C)(O)c1ccc(CCC2(C3CCCC3)CC(O)=C(Cc3nc4ncc(Cl)cn4n3)C(=O)O2)cc1Cl` (stereo not shown) [B(38), 6-{2-[3-Chloro-4-(1-hydroxy-1-methylethyl)phenyl]ethyl}-3-[(6-chloro[1,2,4]triazolo[1,5-a]pyrimidin-2-yl)methyl]-6-cyclopentyl-4-hydroxy-5,6-dihydro-2H-pyran-2-one], the half-inhibitory concentration (IC50) worked out at 67 nM. Consider `CCc1cc(CCC2(C3CCCC3)CC(O)=C(Cc3nc4nc(C)cc(C)n4n3)C(=O)O2)c(OCC(C)C)cc1O` (stereo not shown) [A(59)], for which the IC50 came to 3 nM.

As to `COc1cc(O)c(C(C)=O)cc1CCC1(C2CCCC2)CC(O)=C(Cc2nc3nc(C)cc(C)n3n2)C(=O)O1` (stereo not shown) [A(98), 6-[2-(5-Acetyl-4-hydroxy-2-methoxyphenyl)ethyl]-cyclopentyl-3-[(5,7-dimethyl[1,2,4]triazolo[1,5-a]pyrimidin-2-yl)methyl]-4-hydroxy-5,6-dihydro-2H-pyran-2-one], the 50% inhibitory concentration (IC50) is 11 nM.

As to `Cc1cc(C)n2nc(CC3=C(O)CC(CCc4ccc(C(=O)O)c(Cl)c4)(C4CCCC4)OC3=O)nc2n1` (stereo not shown) [B(12)], the half-maximal inhibitory concentration (IC50) was found to be 110 nM. Consider `CCc1cc(CCC2(C3CCCC3)CC(O)=C(Cc3nc4nc(C)cc(C)n4n3)C(=O)O2)ccc1CNS(C)(=O)=O` (single isomer, unassigned; enantiomer 2) [A(130), Enantiomer 2 of N-[4-(2-{2-cyclopentyl-5-[(5,7-dimethyl[1,2,4]triazolo[1,5-a]pyrimidin-2-yl)methyl]-4-hydroxy-6-oxo-3,6-dihydro-2H-pyran-2-yl}ethyl)-2-ethylbenzyl]methanesulfonamide], for which the IC50 was found to be 3 nM. Turning to `CCc1ccc(CCCOC)c(CCC2(C3CCCC3)CC(O)=C(Cc3nc4nc(C)cc(C)n4n3)C(=O)O2)c1` (stereo not shown) [A(19), 6Cyclopentyl-3-[(5,7-dimethyl[1,2,4]triazolo[1,5-a]pyrimidin-2-yl)methyl]-6-{2-[5-ethyl-2-(3-methoxypropyl)phenyl]ethyl}-4-hydroxy-5,6dihydro-2H-pyran-2-one], the half-inhibitory concentration (IC50) came out at 12 nM. With `CCc1cc(CCC2(C3CCCC3)CC(=O)CC(=O)O2)c(OC)cn1` (stereo not shown) [A(2), 6–Cyclopentyl-6-[2-(2-ethyl-5-methoxypyridin-4-yl)ethyl]dihydro-2H-pyran-2,4(3H)-dione] the figure was 620 nM; with `CCc1cc(CCC2(C3CCCC3)CC(O)=C(Cc3nc4nc(C)cc(C)n4n3)C(=O)O2)ccc1CO` (racemic) [B(33), 6-Cyclopentyl-3-[(5,7-dimethyl[1,2,4]triazolo[1,5-a]pyrimidin-2-yl)methyl]-6-{2-[3-ethyl-4-(hydroxymethyl)phenyl]ethyl}-4-hydroxy-5,6-dihydro-2H-pyran-2-one], 28 nM; with `CCc1cc(CCC2(C3CCCC3)CC(O)=C(Cc3nc4nc(C)cc(C)n4n3)C(=O)O2)ccc1CNS(C)(=O)=O` (single isomer, unassigned; enantiomer 1) [A(129), Enantiomer 1 of N-[4-(2-{2-cyclopentyl-5-[(5,7-dimethyl[1,2,4]triazolo[1,5-a]pyrimidin-2-yl)methyl]-4-hydroxy-6-oxo-3,6-dihydro-2H-pyran-2-yl}ethyl)-2-ethylbenzyl]methanesulfonamide], 4 nM.

With `COc1cnc(C)cc1CCC1(C2CCCC2)CC(O)=C(Cc2nc3nc(C)cc(C)n3n2)C(=O)O1` (stereo not shown) [A(8), 6-Cyclopentyl-3-[(5,7-dimethyl[1,2,4]triazolo[1,5-a]pyrimidin-2-yl)methyl]-4-hydroxy-6-[2-(5methoxy-2-methylpyridin-4-yl)ethyl]-5,6-dihydro-2H-pyran-2-one], the IC50 is 99 nM. Then `O=C1CC(=O)OC(CCc2ccc(C(=O)O)c(Cl)c2)(C2CCCC2)C1` (stereo not shown) [B(10)], with 30000 nM. `CC(C)(C#N)c1ccc(CCC2(C3CCCC3)CC(O)=C(Cc3cn4nccnc4n3)C(=O)O2)cc1Cl` (stereo not shown) [B(14), 2-(2-Chloro-4-{2-[2-cyclopentyl-4-hydroxy-5-(imidazo[1,2-b][1,2,4]triazin-6-ylmethyl)-6-oxo-3,6-dihydro-2H-pyran-2-yl]ethyl}phenyl)-2-methylpropanenitrile]: the IC50 is 26 nM. With `Cc1cc(C)n2nc(CC3=C(O)CC(CCc4ccc([C@@H](C)NC(=O)OC(C)(C)C)cc4)(C4CCCC4)OC3=O)nc2n1` (stereo partly drawn) [A(91), tert-Butyl(1R)-1-[4-(2-{2-cyclopentyl-5-[(5,7-dimethyl[1,2,4]triazolo[1,5-a]pyrimidin-2-yl)methyl]-4-hydroxy-6-oxo-3,6-dihydro-2H-pyran-2-yl}ethyl)phenyl]ethylcarbamate] the figure was 160 nM.

For the origin of these results see US7151105B2, “Inhibitors of Hepatitis C virus RNA-dependent RNA polymerase, and compositions and treatments using the same” (Agouron Pharmaceuticals, Inc., priority 2004, dated 2006).
